# “Also recorded” adds a separate entry of the source.
# B1: rCRT: recombinant calreticulin purchased from Sigma (SRP8001) (protein)
# chain: EPAVYFKEQFLDGDGWTSRWIESKHKSDFGKFVLSSGKFYGDEEKDKGLQTSQDARFYALSASFEPFSNKGQTLVVQFTVKHEQNIDCGGGYVKLFPNSLDQTDMHGDSEYNIMFGPDICGPGTKKVHVIFNYKGKNVLINKDIRCKDDEFTHLYTLIVRPDNTYEVKIDNSQVESGSLEDDWDFLPPKKIKDPDASKPEDWDERAKIDDPTDSKPEDWDKPEHIPDPDAKKPEDWDEEMDGEWEPPVIQNPEYKGEWKPRQIDNPDYKGTWIHPEIDNPEYSPDPSIYAYDNFGVLGLDLWQVKSGTIFDNFLITNDEAYAEEFGNETWGVTKAAEKQMKDKQDEEQRLKEEEEDKKRKEEEEAEDKEDDEDKDEDEEDEEDKEEDEEEDVPGQAKDEL
# What was measured:
# [1] = test system: HR-SMM; details: cited from earlier work
# [2] = test system: MM cell lines; details: different MM cell lines; cited from earlier work
# [3] = test system: cGAS/STING pathway; assay: Western blot of cGAS/STING pathway; assay type: cell-based, human; details: AMO1; ADU-S100 10 uM with BTZ 5 nM
# Procedure: Cell lysis was performed in RIPA buffer (Boston Bio Products) supplemented with Halt protease and phosphatase inhibitor cocktail (ThermoFisher Scientific). SDS-PAGE was performed on NuPage Bis-Tris gels (ThermoFisher Scientific) using MOPS or MES running buffer. Gels were dry transferred onto 0.45 μm nitrocellulose membranes using the iBlot® Dry Blotting System (ThermoFisher Scientific). The following Abs were purchased from Cell Signaling Technology: EIF2A (#5324), p-EIF2A (#3398), ATF4 (#11815), CHOP (2895), CALR (#12238), cGAS (#15102), TBK1 (#3504), pTBK1 (#5483), pIRF3 (#29047), STING (#13647). GAPDH (#2118) and B-ACTIN (#4970) were used as loading controls.
# [4] = test system: type-I IFN response in AMO1 and NCI-H929 MM cells; assay: Type-I IFN response in MM cells (RNA-seq, qRT-PCR, ELISA); assay type: cell-based, human; details: H929; STING agonist 10 uM with BTZ 5 nM
# Procedure: Total RNA from multiple myeloma cells was prepared with TRIzol™ (ThermoFisher Scientific) and RNA Clean and Concentrator™-5 kit (Zymo Research) following the product instructions. RNA integrity and quantity was assessed by NanoDrop Spectrophotometer (ThermoFisher Scientific). For analysis of mRNA expression, oligo-dT-primed cDNA was obtained using the High Capacity cDNA Reverse Transcription Kit (ThermoFisher Scientific), and used as template to quantify: human and murine IFNA1 (Hs03044218_g1, Mm03030145_gH), human and murine IFNB1 (Hs01077958_s1, Mm00439552_s1), human and murine CXCL9 (Hs00171065_ml, Mm00434946_ml), and human and murine GAPDH (Hs02786624_g1, Mm99999915_g1). Analysis was determined by RT-PCR using TaqMan®Fast Universal PCR Master Mix on a 7500 Fast Real-Time PCR System (ThermoFisher Scientific). Comparative RT-PCR was performed in triplicate. Relative expression was calculated using the comparative […] (Ct) method.
# AMO1^WT and STING^KO cells were either untreated or treated with BTZ for 24 h. Supernatant was collected, and secretion of CXCL9 chemokines was analyzed by MIG (CXCL9) Human Instant ELISA™ Kit (#BMS285INST, ThermoFisher Scientific).
# AMO1 WT and STING^KO were cultured for 16 h in the presence of absence of BTZ (5 nM). RNA was extracted as previously described and submitted to NovaSeq RNAseq analysis followed by VIPER NGS Analysis pipeline (Cornwell et al. (2018) BMC Bioinformatics; 19(1):135). Lists of DEGs were applied to the GSEA software. RNAseq data have been submitted to Gene Expression Omnibus (accession number: GSE171837).
# [5] = test system: 5TGM1 tumors; assay: In vivo tumor growth analysis; set-up: species or system mouse
# Procedure: 6-week old female immunodeficient NOD.CB17-Prkdcscid/NCrCrl (NOD/SCID) mice (Charles River) and immunocompetent C57BL/KaLwRijHsd (Envigo) mice were housed in an animal facility at the Dana-Farber Cancer Institute (DFCI). All experiments were performed after approval by the Animal Ethics Committee of the DFCI and performed using institutional guidelines.
# To assess the effect of BTZ in the absence of an immune system, NOD/SCID mice were subcutaneously injected with 1×10^6 5TGM1 WT cells in a 1:1 ratio with Matrigel® (Corning); to assess BTZ in an immunocompetent host, C57BL/KaLwRijHsd mice were injected with 1×10^6 5TGM1 either WT or calrKO in the same ratio with Matrigel®. When tumor became measurable, mice (5/group) were randomized to receive either PBS or BTZ administered intra peritoneally (i.p.) 0.5 mg/kg twice/week for 2 weeks. Tumor sizes were measured and mice were sacrificed when tumors reached 2 cm in diameter or ulceration or major compromise in quality of life. A parallel experiment was performed to allow for tumor harvesting after two injections i.p. of BTZ for RNA-seq analysis, as detailed below.
# 6-week old female immunodeficient NOD.CB17-Prkdcscid/NCrCrl (NOD/SCID) (Charles River) and immunocompetent C57BL/KaLwRijHsd (Envigo) mice were housed in the animal facility at DFCI. All experiments were performed after approval by the Animal Ethics Committee of the DFCI and performed using institutional guidelines.
# (§1) NOD/SCID and C57BL/KaLwRijHsd mice were subcutaneously (sc) injected with 1×10^6 5TGM1 either WT or Calr^KO cells in PBS. When tumor became measurable, mice were randomized to receive either PBS or BTZ administered intra peritoneally (i.p.) 0.5 mg/kg twice/week for 2 weeks. Tumor sizes were measured as previously described (46), and mice were sacrificed when tumors reached 2 cm in diameter or ulceration or major compromise in quality of life. A parallel experiment was performed to allow for tumor harvesting after two injections ip of BTZ for RNA-seq analysis, as detailed below. For BTZ and STING agonist combination studies, C57BL/KaLwRijHsd (n=5/group) and SCID/NOD (n=6/group) mice bearing 5TGM1 WT and C57BL/KaLwRijHsd mice (n=5/group) bearing 5TGM1 Sting^KO tumors were randomized to receive: PBS, BTZ (0.375 mg/kg twice a week for 2 weeks, i.p.), ADU-S100 (100 μg) administered in the peritumoral area (day 1 and 2), or a combination. Tumor sizes were measured as described above. A parallel experiment in C57BL/KaLwRijHsd mice was performed to allow for tumor harvesting after one administration of either BTZ or ADU-S100. Tumors were fixed in 10% formalin for 24 h, and then maintained in 70% ethanol prior to paraffin embedding and processing for IHC to detect CD3 (#nb600 Ab, Novus Bio).
# [6] = test system: 5TGM1 tumors; assay: IHC CD3 staining of tumors; assay type: in vivo, mouse; details: tumors retrieved after one administration of the drugs
# Procedure: as §1
# [7] = test system: 5TGM1 MM cells; assay: Cell Counting Kit-8 (CCK-8) proliferation assay; assay type: cell-based, murine; details: ADU-S100 0-5 uM, 72 hr
# Procedure: Cell viability was evaluated by Cell Counting Kit-8 (CCK-8) assay (Dojindo Molecular Technologies).
# [8] = test system: AMO1, H929 and KMS11 MM cells; assay: Phagocytosis assay of MM cells by monocyte-derived DCs; assay type: cell-based, human; details: AMO1 GABARAP^KO after BTZ, rCALR 3 ug/10^6 cells
# Procedure: Mo-DCs were generated from CD14+ peripheral blood monocytes were positively selected using magnetic beads (Miltenyi Biotec) and cultured for 6 days in mo-DC differentiation medium containing GM-CSF and IL-4 (130-094-812; Miltenyi Biotec) to generate Mo-DCs. AMO1, KMS11 and H929 cells lines, as well as patient MM cells, were stained with CellTrace™ Far Red (ThermoFisher Scientific), cultured with or without BTZ (for 16 h), and then incubated in 48-well plates for 4 h at 1:1 ratio with CellTrace™ CFSE stained Mo-DCs. Cells were then collected, and phagocytosis analysis was performed by flow cytometry and confocal microscopy. Analagous phagocytosis experiments was performed using 5TGM1 murine MM and immature murine DC line JAWSII.
# Collected cells were analyzed using the BD LRSFortessa™ X-20 flow cytometer. Mo-DCs that engulfed MM cells were CFSE and FAR-RED double positive. Fold increase in percentage of double positive DCs after co-culture with BTZ treated vs untreated MM cells was compared.
# Mo-DCs were generated from CD14+ peripheral blood monocytes from healthy donors, positively selected using magnetic beads (Miltenyi Biotec), cultured for 6 days in mo-DC differentiation medium containing GM-CSF and IL-4 (130-094-812; Miltenyi Biotec). AMO1 and NCI-H929 cells lines, as well as patient MM cells, were stained with CellTrace™ Far Red (ThermoFisher Scientific), cultured with or without BTZ for 16 h, and then incubated in 48-well plates for 4 h at 1:1 ratio with CellTrace™ CFSE stained Mo-DCs. Cells were then collected, and phagocytosis analysis was performed by flow cytometry and confocal microscopy. Analagous phagocytosis experiments were performed using 5TGM1 murine multiple myeloma and JAWSII cell line that was used as source of immature murine DCs.
# Flow cytometry-based assay: Collected cells were analyzed using the BD LRSFortessa X-20 flow cytometer. Mo-DCs that engulfed MM cells were CFSE and FAR-RED double positive. Fold increase in percentage of double positive DCs after co-culture with BTZ treated vs untreated MM cells was compared.
molecule,measurement,setting,value
Nc1cccc2c1CN(C1CCC(=O)NC1=O)C2=O (centres unmarked) [lenalidomide],progression of HR-SMM,[1]; lenalidomide alone,delay progressions of HR-SMM
same,treatment discontinuation and secondary cancers,[1]; lenalidomide cohort,high rate of treatment discontinuation and secondary cancers
CC(C)C[C@H](NC(=O)[C@H](CCc1ccccc1)NC(=O)CN1CCOCC1)C(=O)N[C@@H](Cc1ccccc1)C(=O)N[C@@H](CC(C)C)C(=O)[C@@]1(C)CO1 [carfilzomib],CRT exposure,[2],shown to expose CRT in different MM cell lines
Nc1ncnc2c1ncn2[C@@H]1O[C@@H]2COP(=O)([S-])O[C@@H]3[C@H](O)[C@@H](COP([O-])(=S)O[C@H]2[C@H]1O)O[C@H]3n1cnc2c(N)ncnc21.[Na+].[Na+] (some centres unmarked) [ADU-S100],phosphorylated TBK1,[3],higher levels of phosphorylated TBK1 kinase
same,transcription of IFNA1 and IFNB1,[4],increased transcription of IFNA1 and IFNB1
same,anti-tumor activity,[5]; 5TGM1 Sting^KO tumors in immunocompetent mice,still retained a partial anti-multiple myeloma activity
same,anti-tumor effects,"[5]; 5TGM1 WT in immunodeficient NOD/SCID mice, BTZ 0.375 mg/kg, ADU-S100 100 ug day 1 and 2",abrogated the anti-tumor effects
same,CD3+ T cell infiltration within tumors (IHC),[6],increased CD3+ T cell infiltration within tumors
same,direct killing of MM cells (live cells vs untreated),[7],sensitive to a direct killing
B1,phagocytosis of MM cells by DCs with recombinant calreticulin add-back,[8],confirmed the on-target effect GABARAP^KO; also recorded: restored phagocytosis of MM cells after BTZ
same,phagocytosis of MM cells by DCs with recombinant calreticulin add-back,[8]; listed as recombinant CRT,increases the immune response against the cancer cells

# — patent US12109266B2, “Modulating gabarap to modulate immunogenic cell death” (Dana-Farber Cancer Institute, Inc., priority 2020, dated 2024)
